Earlier results, collected in patent US6335015B1, “Method of the prophylactic treatment of mastitis” (Astacarotene AB, priority 1997, dated 2002).

Tests used:
sows = details: feed supplemented with astaxanthin prior to parturition and during lactation
[1] = biological tests

CC1=C(/C=C/C(C)=C/C=C/C(C)=C/C=C/C=C(C)/C=C/C=C(C)/C=C/C2=C(C)C(=O)[C@@H](O)CC2(C)C)C(C)(C)C[C@H](O)C1=O [astaxanthin]
piglets born alive (sows): more piglets born alive | antioxidative properties compared to other carotenoids [1]: clearly the best antioxidative properties
